28 molecules from PMC9833666, “Designing and identifying β-hairpin peptide macrocycles with antibiotic potential” (Science Advances, 2023) can be followed below.

The test system of one series is Escherichia coli W3110. Format: cell-based. The settings on record: for Ec W3110 MIC MH: E. coli W3110, MH medium; for Ec W3110 MIC RPMI: E. coli W3110, RPMI medium.
The subject of series [1] is Single-donor human red blood cells. As to the kind of experiment: Hemolysis assay. Format: cell-based. As for the experimental part:
Single-donor human red blood cells (Innovative Research, no. IWB3ALS) were washed in PBS and adjusted to a concentration of 1 × 10^9 cells/ml. Each peptide was added individually to 200 μl of cells at a concentration of either 300 μg/ml (SySA library) or 128 μg/ml (SySA-5 optimization library) in a 96-well polypropylene plate (Corning, 3879). PBS alone and 1% Triton X-100 were used for background normalization and 100% hemolysis, respectively. Each reaction was set up in triplicate. Plates were incubated for 3 hours at 37°C. Following incubation, samples were centrifuged at 800g for 20 min, and 100 μl of supernatant was transferred to a flat-bottom 96-well plate (Genesse, 25-104). Percent hemolysis for each sample was determined by normalizing the absorbance at 540 nm for each sample to the average background and dividing by the average absorbance for 1% Triton X-100 (100% hemolysis). Error bars represent 1 SD of triplicate samples.

Read-outs that look alike come from different tables or passages of the source. Bridge positions count the residues as written; N and C are the ends. Ends that are not written are not given here. Peptide text beside a SMILES is read from it.

“CLRVRVNDRGSGVKITVEVC (disulfide 1-20 (inferred)) [SySA-39]”: in the series on Escherichia coli W3110, the Ec W3110 MIC MH was above 256 µg/mL and the Ec W3110 MIC RPMI is above 256 µg/mL. Further, the hemolysis in series [1] was found to be 0.28%.

Take “CLTIRVNNRRGRVRISVQVC (disulfide 1-20 (inferred)) [SySA-15]”: in the series on Escherichia coli W3110, the Ec W3110 MIC MH is above 256 µg/mL and the Ec W3110 MIC RPMI was above 256 µg/mL. For the same molecule, the hemolysis in series [1] is 0.80%.

“CLRIRLNNRGRGVKVSVEVC (disulfide 1-20 (inferred)) [SySA-46]”: in the series on Escherichia coli W3110, the Ec W3110 MIC MH was above 256 µg/mL and the Ec W3110 MIC RPMI is above 256 µg/mL. Besides, in series [1], the hemolysis came out at 0.47%.

In the case of “CRIRVNINNRRRTLRLEVEC (disulfide 1-20 (inferred)) [SySA-35]”, in the series with Escherichia coli W3110, the Ec W3110 MIC MH was above 256 µg/mL and the Ec W3110 MIC RPMI was above 256 µg/mL. Further, in series [1], the hemolysis worked out at 0.12%.

Turning to “CRIRIDVNNGSGRLKLQLEC (disulfide 1-20 (inferred)) [SySA-21]”, in the series with Escherichia coli W3110, the Ec W3110 MIC MH is above 256 µg/mL and the Ec W3110 MIC RPMI is above 256 µg/mL. For the same molecule, the hemolysis in series [1] was determined as 0.42%.

As for “CVTIRVDNRGSRLKISVQVC (disulfide 1-20 (inferred)) [SySA-33]”, in the series with Escherichia coli W3110, the Ec W3110 MIC MH is above 256 µg/mL and the Ec W3110 MIC RPMI is above 256 µg/mL. Besides, the hemolysis in series [1] worked out at 0.26%.

In the series on Escherichia coli W3110, “CRVRIDIDNRSRTLKLEVQC (disulfide 1-20 (inferred)) [SySA-64]” returned an Ec W3110 MIC MH above 256 µg/mL and an Ec W3110 MIC RPMI above 256 µg/mL. Further, in series [1], the hemolysis is on record as 0.70%.

In the series with Escherichia coli W3110, “CLRVRVNNRRSGVRVTLEVC (disulfide 1-20 (inferred)) [SySA-67]” had an Ec W3110 MIC MH above 256 µg/mL and an Ec W3110 MIC RPMI above 256 µg/mL. In addition, the hemolysis in series [1] was determined as 0.70%.

In the series on Escherichia coli W3110, “CLTVRLDNRGSGLRITVEVC (disulfide 1-20 (inferred)) [SySA-44]” yielded an Ec W3110 MIC MH above 256 µg/mL and an Ec W3110 MIC RPMI above 256 µg/mL. For the same molecule, the hemolysis in series [1] was -0.0761%.

In the series with Escherichia coli W3110, “CLTVRLNNRGGGVKISVEVC (disulfide 1-20 (inferred)) [SySA-59]” returned an Ec W3110 MIC MH above 256 µg/mL and an Ec W3110 MIC RPMI above 256 µg/mL. For the same molecule, the hemolysis in series [1] was 0.32%.

With “CLRIRVNNRGSGLRISVEVC (disulfide 1-20 (inferred)) [SySA-22]”, in the series on Escherichia coli W3110, the Ec W3110 MIC MH is above 256 µg/mL and the Ec W3110 MIC RPMI is above 256 µg/mL. Further, the hemolysis in series [1] is 0.48%.

In the case of `CC[C@H](C)[C@@H]1NC(=O)[C@H](CC(N)=O)NC(=O)[C@H](C(C)C)NC(=O)[C@H](CCCNC(=N)N)NC(=O)[C@H](C(C)C)NC(=O)[C@H](CCCNC(=N)N)NC(=O)[C@@H](N)CSSC[C@@H](C(=O)O)NC(=O)[C@H](CCC(N)=O)NC(=O)[C@H](CC(C)C)NC(=O)[C@H](CCC(N)=O)NC(=O)[C@H](CC(C)C)NC(=O)[C@H](CCCNC(=N)N)NC(=O)[C@H](CC(C)C)NC(=O)[C@H]([C@@H](C)O)NC(=O)[C@H](CCCNC(=N)N)NC(=O)[C@H](CO)NC(=O)[C@H](CCCNC(=N)N)NC(=O)[C@H](CC(N)=O)NC(=O)[C@H](CC(=O)O)NC1=O` [SyPA-7] (H-CRVRVNIDNRSRTLRLQLQC-OH; disulfide 1-20), the “W3110 MIC” value in the series with Escherichia coli W3110 (W3110) is above 128 µg/mL. In addition, the “%Hemo” value in series [1] was determined as 1.48%.

In the series with Escherichia coli W3110, “CLTVRVNNRGSGVKVSLEVC (disulfide 1-20 (inferred)) [SySA-54]” came in with an Ec W3110 MIC MH above 256 µg/mL and an Ec W3110 MIC RPMI above 256 µg/mL. The hemolysis in series [1] was 1.51%.

As for “CVTIRLNDGGSGLKISLQVC (disulfide 1-20 (inferred)) [SySA-23]”, in the series with Escherichia coli W3110, the Ec W3110 MIC MH is above 256 µg/mL and the Ec W3110 MIC RPMI was above 256 µg/mL. In series [1], the hemolysis is listed as -0.03%.

In the series with Escherichia coli W3110, “CVRVRVDNRGSRVKVTVQVC (disulfide 1-20 (inferred)) [SySA-12]” displayed an Ec W3110 MIC MH above 256 µg/mL and an Ec W3110 MIC RPMI above 256 µg/mL. Besides, the hemolysis in series [1] amounted to 0.30%.

In the series on Escherichia coli W3110, “CRIRININNRRGRLKLQVEC (disulfide 1-20 (inferred)) [SySA-76]” showed an Ec W3110 MIC MH above 256 µg/mL and an Ec W3110 MIC RPMI above 256 µg/mL. Moreover, the hemolysis in series [1] was found to be 0.27%.

In the series on Escherichia coli W3110, “CRVRVNINNRGGTVKLQLQC (disulfide 1-20 (inferred)) [SySA-13]” came in with an Ec W3110 MIC MH above 256 µg/mL and an Ec W3110 MIC RPMI above 256 µg/mL. Moreover, the hemolysis in series [1] is 0.91%.

As to `CC(C)C[C@@H]1NC(=O)[C@H](CCCNC(=N)N)NC(=O)[C@H](C(C)C)NC(=O)[C@H](CCCNC(=N)N)NC(=O)[C@H](C(C)C)NC(=O)[C@@H](N)CSSC[C@@H](C(=O)O)NC(=O)[C@H](C(C)C)NC(=O)[C@H](CCC(N)=O)NC(=O)[C@H](C(C)C)NC(=O)[C@H](CO)NC(=O)[C@H](C(C)C)NC(=O)[C@H](CCCNC(=N)N)NC(=O)[C@H](C(C)C)NC(=O)[C@H](CCCNC(=N)N)NC(=O)[C@H](CCCNC(=N)N)NC(=O)[C@H](CCCNC(=N)N)NC(=O)[C@H](CCCNC(=N)N)NC(=O)[C@H](CC(N)=O)NC(=O)[C@H](CC(N)=O)NC1=O` [SyPA-10] (H-CVRVRLNNRRRRVRVSVQVC-OH; disulfide 1-20), the “W3110 MIC” value with Escherichia coli W3110 (SyPA peptides, MH, replicate 2) stood at 16 µg/mL; in the series with Escherichia coli W3110 (SyPA peptides, MH, replicate 3), 16 µg/mL. Moreover, the “%Hemo” value in series [1] (SyPA peptides, human red blood cells, 3 h 37°C, relative to 1% Triton X-100, peptide concentration not stated for SyPA, n=3) turned out to be 1.99%.

For “CVTVRVNNRGRGLRISLQVC (disulfide 1-20 (inferred)) [SySA-47]”, in the series with Escherichia coli W3110, the Ec W3110 MIC MH is above 256 µg/mL and the Ec W3110 MIC RPMI is above 256 µg/mL. Further, the hemolysis in series [1] worked out at 0.48%.

In the series with Escherichia coli W3110, “CRIRINVNNGSGRVRLELEC (disulfide 1-20 (inferred)) [SySA-77]” registered an Ec W3110 MIC MH above 256 µg/mL and an Ec W3110 MIC RPMI above 256 µg/mL. For the same molecule, the hemolysis in series [1] stood at 0.32%.

Turning to “CRVRININNRSRTLKLELEC (disulfide 1-20 (inferred)) [SySA-68]”, in the series on Escherichia coli W3110, the Ec W3110 MIC MH is above 256 µg/mL and the Ec W3110 MIC RPMI was above 256 µg/mL. Also, the hemolysis in series [1] came to 0.47%.

As to `CC[C@H](C)[C@@H]1NC(=O)[C@H](CCCNC(=N)N)NC(=O)[C@H](CC(C)C)NC(=O)CNC(=O)[C@H](CO)NC(=O)[C@H](CCCNC(=N)N)NC(=O)[C@H](CCCNC(=N)N)NC(=O)[C@H](CC(N)=O)NC(=O)[C@H](CC(=O)O)NC(=O)[C@H](CC(C)C)NC(=O)[C@H](CCCNC(=N)N)NC(=O)[C@H](C(C)C)NC(=O)[C@H](CCCNC(=N)N)NC(=O)[C@H](C(C)C)NC(=O)[C@@H](N)CSSC[C@@H](C(=O)O)NC(=O)[C@H](C(C)C)NC(=O)[C@H](CCC(N)=O)NC(=O)[C@H](CC(C)C)NC(=O)[C@H](CO)NC1=O` [SyPA-3] (H-CVRVRLDNRRSGLRISLQVC-OH; disulfide 1-20), the “W3110 MIC” value with Escherichia coli W3110 (W3110) is above 128 µg/mL. Besides, the “%Hemo” value in series [1] is 0.39%.

In the series on Escherichia coli W3110, “CRIRIDVNNRSGTLKLQVQC (disulfide 1-20 (inferred)) [SySA-36]” returned an Ec W3110 MIC MH above 256 µg/mL and an Ec W3110 MIC RPMI above 256 µg/mL. Besides, the hemolysis in series [1] is listed as -0.0122%.

In the series with Escherichia coli W3110, “CLRIRLNNRRSRVRISVEVC (disulfide 1-20 (inferred)) [SySA-52]” returned an Ec W3110 MIC MH above 256 µg/mL and an Ec W3110 MIC RPMI above 256 µg/mL. Further, the hemolysis in series [1] is recorded as 9.99%.

For “CVRVRVNNRGGGVRITLQVC (disulfide 1-20 (inferred)) [SySA-24]”, in the series with Escherichia coli W3110, the Ec W3110 MIC MH was above 256 µg/mL and the Ec W3110 MIC RPMI is above 256 µg/mL. In addition, in series [1], the hemolysis came out at 0.38%.

“CRVKINVNNRGRTLKLELEC (disulfide 1-20 (inferred)) [SySA-58]”: in the series on Escherichia coli W3110, the Ec W3110 MIC MH was above 256 µg/mL and the Ec W3110 MIC RPMI was above 256 µg/mL. In series [1], the hemolysis amounted to 0.000315%.

On to `CC(C)C[C@@H]1NC(=O)[C@H](CCCNC(=N)N)NC(=O)[C@H](CCCNC(=N)N)NC(=O)[C@H](CCCNC(=N)N)NC(=O)CNC(=O)[C@H](CC(N)=O)NC(=O)[C@H](CC(N)=O)NC(=O)[C@H](CC(C)C)NC(=O)[C@H](CCCNC(=N)N)NC(=O)[C@H](C(C)C)NC(=O)[C@H](CCCNC(=N)N)NC(=O)[C@H](C(C)C)NC(=O)[C@@H](N)CSSC[C@@H](C(=O)O)NC(=O)[C@H](C(C)C)NC(=O)[C@H](CCC(N)=O)NC(=O)[C@H](CC(C)C)NC(=O)[C@H](CO)NC(=O)[C@H](C(C)C)NC(=O)[C@H](CCCCN)NC1=O` [SyPA-1] (H-CVRVRLNNGRRRLKVSLQVC-OH; disulfide 1-20), for which, in series [1], the “%Hemo” value came to 1.30%.

As to `CC(C)C[C@@H]1NC(=O)[C@H](CCCNC(=N)N)NC(=O)CNC(=O)[C@H](CCCNC(=N)N)NC(=O)[C@H](CCCNC(=N)N)NC(=O)[C@H](CC(N)=O)NC(=O)[C@H](CC(N)=O)NC(=O)[C@H](CC(C)C)NC(=O)[C@H](CCCNC(=N)N)NC(=O)[C@H](C(C)C)NC(=O)[C@H](CCCNC(=N)N)NC(=O)[C@H](CC(C)C)NC(=O)[C@@H](N)CSSC[C@@H](C(=O)O)NC(=O)[C@H](C(C)C)NC(=O)[C@H](CCC(N)=O)NC(=O)[C@H](CC(C)C)NC(=O)[C@H](CO)NC(=O)[C@H](C(C)C)NC(=O)[C@H](CCCNC(=N)N)NC1=O` [SyPA-8] (H-CLRVRLNNRRGRLRVSLQVC-OH; disulfide 1-20), in series [1], the “%Hemo” value came out at 2.87%.
